In patent US20180000085A1, “USE OF PICOLINAMIDE COMPOUNDS WITH FUNGICIDAL ACTIVITY” (DOW AGROSCIENCES LLC, priority 2014, published 2018):

How the values were obtained:
Zymoseptoria tritici = experiment: Leaf blotch of wheat (SEPTTR) disease control on wheat seedlings; format: in vivo; parameters: key to SEPTTR 1DP, HV activity at 100 ppm (% control rating) / SEPTTR 3DC, HV activity at 100 ppm (% control rating) / SEPTTR disease control, 1DP / SEPTTR disease control, 3DC / SEPTTR 1DP disease control rating, HV activity / SEPTTR 3DC disease control rating, HV activity / SEPTTR 3DC, LV activity at 125.1 g/H (% Control rating) / SEPTTR 1DP, LV activity at 125.1 g/H (% Control rating) / SEPTTR 1DP disease control rating, LV activity at 125.1 g/H / SEPTTR 3DC disease control rating, LV activity at 125.1 g/H / SEPTTR 3DC disease control rating, HV activity at 100 ppm / SEPTTR 1DP disease control rating, HV activity at 100 ppm / HV activity at 100 ppm SEPTTR 3DC (disease control rating) / HV activity at 100 ppm SEPTTR 1DP (disease control rating) / LV activity at 125.1 g/H SEPTTR 1DP (disease control rating) / LV activity at 125.1 g/H SEPTTR 3DC (disease control rating): A: > 80; B: ≤ 80; C: Not Tested; D: No Activity Observed in the Reported Assay; conditions: for HV activity at 100 ppm SEPTTR 1DP (disease control rating) / HV activity at 100 ppm SEPTTR 3DC (disease control rating): HV application; for HV activity at 100 ppm SEPTTR 1DP (disease control rating) / HV activity at 100 ppm SEPTTR 3DC (disease control rating) / SEPTTR 1DP disease control rating, HV activity / SEPTTR 3DC disease control rating, HV activity: wheat leaf blotch; for SEPTTR 1DP disease control rating, HV activity at 100 ppm / SEPTTR 3DC disease control rating, HV activity at 100 ppm: high volume application; for SEPTTR 1DP disease control rating, HV activity at 100 ppm / SEPTTR 1DP disease control rating, LV activity at 125.1 g/H: 1 day protectant; for SEPTTR 3DC disease control rating, HV activity at 100 ppm / SEPTTR 3DC disease control rating, LV activity at 125.1 g/H: 3 day curative; for SEPTTR 1DP disease control rating, HV activity / SEPTTR 3DC disease control rating, HV activity: HV application at 100 ppm
Puccinia triticina = experiment: Wheat brown rust (PUCCRT) disease control on wheat seedlings; format: in vivo; parameters: key to PUCCRT 3DC, HV activity at 100 ppm (% control rating) / PUCCRT disease control, 3DC / PUCCRT 1DP disease control rating, HV activity / PUCCRT 3DC disease control rating, HV activity / PUCCRT 3DC, LV activity at 125.1 g/H (% Control rating) / PUCCRT 1DP, LV activity at 125.1 g/H (% Control rating) / PUCCRT 3DC disease control rating, LV activity at 125.1 g/H / PUCCRT 1DP disease control rating, LV activity at 125.1 g/H / PUCCRT 3DC disease control rating, HV activity at 100 ppm / PUCCRT 1DP disease control rating, HV activity at 100 ppm / HV activity at 100 ppm PUCCRT 3DC (disease control rating) / LV activity at 125.1 g/H PUCCRT 1DP (disease control rating) / LV activity at 125.1 g/H PUCCRT 3DC (disease control rating): A: > 80; B: ≤ 80; C: Not Tested; D: No Activity Observed in the Reported Assay; conditions: for HV activity at 100 ppm PUCCRT 1DP (disease control rating) / HV activity at 100 ppm PUCCRT 3DC (disease control rating): HV application; for HV activity at 100 ppm PUCCRT 1DP (disease control rating) / HV activity at 100 ppm PUCCRT 3DC (disease control rating) / PUCCRT 1DP disease control rating, HV activity / PUCCRT 3DC disease control rating, HV activity: wheat brown rust; for PUCCRT 1DP disease control rating, HV activity at 100 ppm / PUCCRT 3DC disease control rating, HV activity at 100 ppm: high volume application; for PUCCRT 1DP disease control rating, HV activity at 100 ppm / PUCCRT 1DP disease control rating, LV activity at 125.1 g/H: 1 day protectant; for PUCCRT 3DC disease control rating, HV activity at 100 ppm / PUCCRT 3DC disease control rating, LV activity at 125.1 g/H: 3 day curative; for PUCCRT 1DP disease control rating, HV activity / PUCCRT 3DC disease control rating, HV activity: HV application at 100 ppm
[1] = low volume application, 125.1 g/H
[2] = low volume application, 125.1 g/H, 1 Day Protectant
[3] = low volume application, 125.1 g/H, 3 Day Curative

COc1ccnc(C(=O)N[C@@H](C)C(=O)O[C@@H](C)[C@@H](CC(C)C)Oc2ccc3ccccc3c2)c1O [Cmpd 1046]
HV activity at 100 ppm SEPTTR 1DP (disease control rating) (Zymoseptoria tritici; 1 Day Protectant): D | HV activity at 100 ppm SEPTTR 3DC (disease control rating) (Zymoseptoria tritici; 3 Day Curative): D | HV activity at 100 ppm PUCCRT 1DP (disease control rating) (Puccinia triticina; 1 Day Protectant): A (> 80) | HV activity at 100 ppm PUCCRT 3DC (disease control rating) (Puccinia triticina; 3 Day Curative): A (> 80)

CC[C@H](NC(=O)c1nccc(OC)c1O)C(=O)O[C@@H](C)[C@H](Oc1ccccc1)C(C)C [Cmpd 810]
SEPTTR 1DP disease control rating, HV activity at 100 ppm (Zymoseptoria tritici): A (> 80) | SEPTTR 3DC disease control rating, HV activity at 100 ppm (Zymoseptoria tritici): A (> 80) | PUCCRT 1DP disease control rating, HV activity at 100 ppm (Puccinia triticina): A (> 80) | PUCCRT 3DC disease control rating, HV activity at 100 ppm (Puccinia triticina): A (> 80)

COc1ccnc(C(=O)NC(C)C(=O)OC(C)C(Oc2ccc(C)cc2Cl)C2CCCC2)c1OCOC(C)=O (stereo not drawn) [Cmpd 913]
SEPTTR 1DP disease control rating, LV activity at 125.1 g/H (Zymoseptoria tritici; [1]): D | SEPTTR 3DC disease control rating, LV activity at 125.1 g/H (Zymoseptoria tritici; [1]): B (≤ 80) | PUCCRT 1DP disease control rating, LV activity at 125.1 g/H (Puccinia triticina; [1]): A (> 80) | PUCCRT 3DC disease control rating, LV activity at 125.1 g/H (Puccinia triticina; [1]): B (≤ 80)

C=CC[C@@H](OCC1CC1)[C@H](C)OC(=O)[C@H](C)NC(=O)c1nccc(OC)c1O [Cmpd 1024]
SEPTTR 1DP disease control rating, HV activity at 100 ppm (Zymoseptoria tritici): D | SEPTTR 3DC disease control rating, HV activity at 100 ppm (Zymoseptoria tritici): B (≤ 80) | PUCCRT 1DP disease control rating, HV activity at 100 ppm (Puccinia triticina): B (≤ 80) | PUCCRT 3DC disease control rating, HV activity at 100 ppm (Puccinia triticina): A (> 80)

COc1ccnc(C(=O)NC(C)C(=O)OC(C)C(Oc2ccccc2)c2nccs2)c1O (mixture of isomers) [Cmpd 808]
SEPTTR 1DP disease control rating, HV activity at 100 ppm (Zymoseptoria tritici): B (≤ 80) | SEPTTR 3DC disease control rating, HV activity at 100 ppm (Zymoseptoria tritici): D | PUCCRT 1DP disease control rating, HV activity at 100 ppm (Puccinia triticina): A (> 80) | PUCCRT 3DC disease control rating, HV activity at 100 ppm (Puccinia triticina): B (≤ 80)

COc1ccnc(C(=O)NC(C)C(=O)OC(C)COc2ccccc2)c1OC(=O)C1CC1 (stereo not drawn) [Cmpd 541]
SEPTTR 1DP, LV activity at 125.1 g/H (% Control rating) (Zymoseptoria tritici; [2]): B (≤ 80) | SEPTTR 3DC, LV activity at 125.1 g/H (% Control rating) (Zymoseptoria tritici; [3]): B (≤ 80) | PUCCRT 1DP, LV activity at 125.1 g/H (% Control rating) (Puccinia triticina; [2]): D | PUCCRT 3DC, LV activity at 125.1 g/H (% Control rating) (Puccinia triticina; [3]): D

CCC(CC)C(Oc1cc(F)ccc1F)C(C)OC(=O)C(CC(C)C)NC(=O)c1nccc(OC)c1O (stereo not drawn) [Cmpd 428]
SEPTTR 1DP disease control rating, HV activity (Zymoseptoria tritici; 1 Day Protectant): D | SEPTTR 3DC disease control rating, HV activity (Zymoseptoria tritici; 3 Day Curative): D | PUCCRT 1DP disease control rating, HV activity (Puccinia triticina; 1 Day Protectant): B (≤ 80) | PUCCRT 3DC disease control rating, HV activity (Puccinia triticina; 3 Day Curative): D

CCC(CC)[C@@H](Oc1cc(F)cc(Cl)c1)[C@H](C)OC(=O)[C@@H](NC(=O)c1nccc(OC)c1O)C(C)C [Cmpd 410]
SEPTTR 1DP disease control rating, HV activity (Zymoseptoria tritici; 1 Day Protectant): B (≤ 80) | SEPTTR 3DC disease control rating, HV activity (Zymoseptoria tritici; 3 Day Curative): B (≤ 80) | PUCCRT 1DP disease control rating, HV activity (Puccinia triticina; 1 Day Protectant): A (> 80) | PUCCRT 3DC disease control rating, HV activity (Puccinia triticina; 3 Day Curative): B (≤ 80)

COc1ccnc(C(=O)NC(C)C(=O)OC(C)C(Oc2ccc(Cl)cc2Cl)c2ccccc2)c1OC(=O)C(C)C (stereo not drawn) [Cmpd 868]
SEPTTR 1DP disease control rating, LV activity at 125.1 g/H (Zymoseptoria tritici; [1]): B (≤ 80) | SEPTTR 3DC disease control rating, LV activity at 125.1 g/H (Zymoseptoria tritici; [1]): B (≤ 80) | PUCCRT 1DP disease control rating, LV activity at 125.1 g/H (Puccinia triticina; [1]): B (≤ 80) | PUCCRT 3DC disease control rating, LV activity at 125.1 g/H (Puccinia triticina; [1]): B (≤ 80)

CCCOC(C(C)C)C(C)OC(=O)C(C)NC(=O)c1nccc(OC)c1O (stereo not drawn) [Cmpd 435]
SEPTTR 1DP disease control rating, HV activity (Zymoseptoria tritici; 1 Day Protectant): D | SEPTTR 3DC disease control rating, HV activity (Zymoseptoria tritici; 3 Day Curative): D | PUCCRT 1DP disease control rating, HV activity (Puccinia triticina; 1 Day Protectant): B (≤ 80) | PUCCRT 3DC disease control rating, HV activity (Puccinia triticina; 3 Day Curative): B (≤ 80)

COc1ccnc(C(=O)N[C@@H](C)C(=O)O[C@@H](C)[C@@H](CC(C)C)OCC2CC2)c1O [Cmpd 1045]
HV activity at 100 ppm SEPTTR 1DP (disease control rating) (Zymoseptoria tritici; 1 Day Protectant): D | HV activity at 100 ppm SEPTTR 3DC (disease control rating) (Zymoseptoria tritici; 3 Day Curative): B (≤ 80) | HV activity at 100 ppm PUCCRT 1DP (disease control rating) (Puccinia triticina; 1 Day Protectant): A (> 80) | HV activity at 100 ppm PUCCRT 3DC (disease control rating) (Puccinia triticina; 3 Day Curative): A (> 80)

CCC(CC)C(Oc1ccc(Cl)cc1)C(C)OC(=O)C(CC(C)C)NC(=O)c1nccc(OC)c1O (stereo not drawn) [Cmpd 427]
SEPTTR 1DP disease control rating, HV activity (Zymoseptoria tritici; 1 Day Protectant): D | SEPTTR 3DC disease control rating, HV activity (Zymoseptoria tritici; 3 Day Curative): D | PUCCRT 1DP disease control rating, HV activity (Puccinia triticina; 1 Day Protectant): B (≤ 80) | PUCCRT 3DC disease control rating, HV activity (Puccinia triticina; 3 Day Curative): D
